Laboratory results: patent US20060069132A1, “Azolecarboxamide herbicides” (priority 2004, published 2006)

Experiments:
[1] = tested on: barnyardgrass; test: Test B pre-/postemergence herbicide test; format: in vivo, Echinochloa crus-galli; conditions: for Plant response rating (0 to 100 scale), Barnyardgrass: 0 is no effect, 100 is complete control, preemergence; for Barnyardgrass plant response rating: Postemergence, scale 0 (no effect) to 100 (complete control)
Method in brief: (§1)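 Pre: seeds sown, then sprayed. Post: 1–4-leaf plants (2–18 cm) sprayed at the same time. Paddy: flooded, treated at 2-leaf stage. Formulation: non-phytotoxic solvent with surfactant. Greenhouse 13–15 days; visual 0–100 score relative to controls.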

[2] = tested on: Surinam grass; test: Test B pre-/postemergence herbicide test; format: in vivo, Urochloa decumbens; conditions: for Plant response rating (0 to 100 scale), Surinam Grass: 0 is no effect, 100 is complete control, preemergence
Method in brief: (§2)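 Test chemicals in a non-phytotoxic solvent mixture with surfactant were applied preemergence to seeded species and postemergence to plants 2-18 cm tall (1- to 4-leaf stage); rice and barnyardgrass were also tested in a flooded paddy at the 2-leaf stage. Visual rating versus controls after 13-15 days in greenhouse, scale 0 (no effect) to 100 (complete control).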

[3] = tested on: cocklebur; test: Test B pre-/postemergence herbicide test; format: in vivo, Xanthium strumarium; conditions: for Plant response rating (0 to 100 scale), Cocklebur: 0 is no effect, 100 is complete control, preemergence
Method in brief: as §1

[4] = tested on: corn; test: Test B pre-/postemergence herbicide test; format: in vivo, Zea mays; conditions: for Plant response rating (0 to 100 scale), Corn: 0 is no effect, 100 is complete control, preemergence
Method in brief: as §2

[5] = tested on: large crabgrass; test: Test B pre-/postemergence herbicide test; format: in vivo, Digitaria sanguinalis; conditions: for Plant response rating (0 to 100 scale), Crabgrass, Large: 0 is no effect, 100 is complete control, preemergence
Method in brief: as §2

[6] = tested on: giant foxtail; test: Test B pre-/postemergence herbicide test; format: in vivo, Setaria faberi; conditions: for Plant response rating (0 to 100 scale), Foxtail, Giant: 0 is no effect, 100 is complete control, preemergence
Method in brief: as §2

[7] = tested on: lambsquarters; test: Test B pre-/postemergence herbicide test; format: in vivo, Chenopodium album
Method in brief: as §2

[8] = tested on: morningglory; test: Test B pre-/postemergence herbicide test; format: in vivo, Ipomoea coccinea; conditions: for Plant response rating (0 to 100 scale), Morningglory: 0 is no effect, 100 is complete control, preemergence
Method in brief: as §1

[9] = tested on: pigweed; test: Test B pre-/postemergence herbicide test; format: in vivo, Amaranthus retroflexus; conditions: for Plant response rating (0 to 100 scale), Pigweed: 0 is no effect, 100 is complete control, preemergence
Method in brief: as §2

[10] = tested on: velvetleaf; test: Test B pre-/postemergence herbicide test; format: in vivo, Abutilon theophrasti; conditions: for Plant response rating (0 to 100 scale), Velvetleaf: 0 is no effect, 100 is complete control, preemergence
Method in brief: as §2

[11] = tested on: blackgrass; test: Test B postemergence herbicide test; format: in vivo, Alopecurus myosuroides
Method in brief: (§3)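 Read-out: visual comparison with controls, scored 0 to 100, where 100 means complete control and 0 no effect. Formulated chemicals were applied postemergence to plants 2–18 cm tall (1- to 4-leaf), or to flooded-paddy plants at the 2-leaf stage, then held 13 to 15 days under glass.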

[12] = tested on: wheat; test: Test B postemergence herbicide test; format: in vivo, Triticum aestivum; design: key to Wheat plant response rating: 0 = no effect, 100 = complete control
Method in brief: (§4)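 Postemergence plants were sprayed with formulated test chemicals at 2 to 18 cm height (1- to 4-leaf stage); paddy species were grown to the 2-leaf stage. After 13 to 15 days in a greenhouse, injury was rated visually against untreated controls on a 0–100 scale (0 = no effect, 100 = complete control).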

[13] = tested on: wild oat; test: Test B postemergence herbicide test; format: in vivo, Avena fatua
Method in brief: as §4

[14] = tested on: rice; test: Test B flooded paddy test; format: in vivo, Oryza sativa; conditions: 1000 g ai/ha, scale 0 to 100 (0 no effect, 100 complete control)
Method in brief: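 Paddy species grown to the 2-leaf stage under flooding; blackgrass sprayed postemergence at 2–18 cm (1- to 4-leaf stage). Plants kept in a greenhouse for 13 to 15 days, then visually rated against controls on 0 (no effect) to 100 (complete control).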

[15] = tested on: small flower umbrella sedge; test: Test B flooded paddy test; format: in vivo, Cyperus difformis; conditions: 1000 g ai/ha, scale 0 to 100 (0 no effect, 100 complete control)
Method in brief: as §3

[16] = tested on: ducksalad; test: Test B flooded paddy test; format: in vivo, Heteranthera limosa; conditions: 1000 g ai/ha, scale 0 to 100 (0 no effect, 100 complete control)
Method in brief: as §3

[17] = tested on: barnyardgrass; test: Test B flooded paddy test; format: in vivo, Echinochloa crus-galli; conditions: 1000 g ai/ha, scale 0 to 100 (0 no effect, 100 complete control)
Method in brief: as §3

[18] = Postemergence, 500 g ai/ha, scale 0 (no effect) to 100 (complete control)
[19] = postemergence, 125 g ai/ha, scale 0 to 100
[20] = 500 g ai/ha, scale 0 to 100, 0 no effect, 100 complete control, preemergence

CCOC(=O)c1ccnc(NC(=O)c2nn(C(C)(C)C)nc2C)c1 [Compound 421]
Plant response rating (0 to 100 scale), Barnyardgrass ([1]; 125 g ai/ha): 0 | Barnyardgrass plant response rating ([1]; 125 g ai/ha): 0 | Barnyardgrass plant response rating ([1]; 500 g ai/ha): 0 | Plant response rating (0 to 100 scale), Surinam Grass ([2]; 125 g ai/ha): 0 | Surinam Grass plant response rating [2, 18]: 0 | Surinam Grass plant response rating [2, 19]: 0 | Plant response rating (0 to 100 scale), Cocklebur ([3]; 125 g ai/ha): 0 | Cocklebur plant response rating [3, 18]: 0 | Cocklebur plant response rating [3, 19]: 0 | Plant response rating (0 to 100 scale), Corn ([4]; 125 g ai/ha): 0 | Corn plant response rating [4, 18]: 0 | Corn plant response rating [4, 19]: 0 | Plant response rating (0 to 100 scale), Crabgrass, Large ([5]; 125 g ai/ha): 0 | Crabgrass, Large plant response rating [5, 18]: 0 | Crabgrass, Large plant response rating [5, 19]: 0 | Plant response rating (0 to 100 scale), Foxtail, Giant ([6]; 125 g ai/ha): 0 | Foxtail, Giant plant response rating [6, 18]: 0 | Foxtail, Giant plant response rating [6, 19]: 0 | Plant response rating (0 to 100 scale), Lambsquarters ([7]; 125 g ai/ha, 0 is no effect, 100 is complete control, preemergence): 0 | Lambsquarters plant response rating [7, 18]: 0 | Lambsquarters plant response rating [7, 19]: 0 | Plant response rating (0 to 100 scale), Morningglory ([8]; 125 g ai/ha): 0 | Morningglory plant response rating [8, 18]: 0 | Morningglory plant response rating [8, 19]: 0 | Plant response rating (0 to 100 scale), Pigweed ([9]; 125 g ai/ha): 0 | Pigweed plant response rating [9, 18]: 0 | Pigweed plant response rating [9, 19]: 0 | Plant response rating (0 to 100 scale), Velvetleaf ([10]; 125 g ai/ha): 0 | Velvetleaf plant response rating [10, 18]: 0 | Velvetleaf plant response rating [10, 19]: 0 | Blackgrass plant response rating [11, 18]: 20 | Blackgrass plant response rating [11, 19]: 20 | Wheat plant response rating [12, 20]: 0 | Wheat plant response rating [12, 18]: 0 | Wheat plant response rating [12, 19]: 0 | Oat, Wild plant response rating [13, 18]: 0 | Oat, Wild plant response rating [13, 19]: 0 | Rice plant response rating [14]: 0 | Sedge, Umbrella plant response rating [15]: 0 | Ducksalad plant response rating [16]: 0 | Barnyardgrass plant response rating [17]: 0

CCc1nn(C(C)(C)C)nc1C(=O)Nc1cccc(C(=O)N2CCCCC2)c1 [Compound 416]
Plant response rating (0 to 100 scale), Barnyardgrass ([1]; 125 g ai/ha): 70 | Barnyardgrass plant response rating ([1]; 125 g ai/ha): 20 | Barnyardgrass plant response rating ([1]; 500 g ai/ha): 30 | Plant response rating (0 to 100 scale), Surinam Grass ([2]; 125 g ai/ha): 60 | Surinam Grass plant response rating [2, 18]: 30 | Surinam Grass plant response rating [2, 19]: 20 | Plant response rating (0 to 100 scale), Cocklebur ([3]; 125 g ai/ha): 0 | Cocklebur plant response rating [3, 18]: 60 | Cocklebur plant response rating [3, 19]: 50 | Plant response rating (0 to 100 scale), Corn ([4]; 125 g ai/ha): 20 | Corn plant response rating [4, 18]: 30 | Corn plant response rating [4, 19]: 20 | Plant response rating (0 to 100 scale), Crabgrass, Large ([5]; 125 g ai/ha): 100 | Crabgrass, Large plant response rating [5, 18]: 40 | Crabgrass, Large plant response rating [5, 19]: 30 | Plant response rating (0 to 100 scale), Foxtail, Giant ([6]; 125 g ai/ha): 70 | Foxtail, Giant plant response rating [6, 18]: 30 | Foxtail, Giant plant response rating [6, 19]: 20 | Lambsquarters plant response rating [7, 18]: 80 | Lambsquarters plant response rating [7, 19]: 70 | Plant response rating (0 to 100 scale), Morningglory ([8]; 125 g ai/ha): 0 | Morningglory plant response rating [8, 18]: 70 | Morningglory plant response rating [8, 19]: 30 | Plant response rating (0 to 100 scale), Pigweed ([9]; 125 g ai/ha): 70 | Pigweed plant response rating [9, 18]: 80 | Pigweed plant response rating [9, 19]: 60 | Plant response rating (0 to 100 scale), Velvetleaf ([10]; 125 g ai/ha): 10 | Velvetleaf plant response rating [10, 18]: 50 | Velvetleaf plant response rating [10, 19]: 40 | Blackgrass plant response rating [11, 18]: 30 | Blackgrass plant response rating [11, 19]: 20 | Wheat plant response rating [12, 20]: 60 | Wheat plant response rating [12, 18]: 30 | Wheat plant response rating [12, 19]: 20 | Oat, Wild plant response rating [13, 18]: 40 | Oat, Wild plant response rating [13, 19]: 30 | Rice plant response rating [14]: 70 | Sedge, Umbrella plant response rating [15]: 80 | Ducksalad plant response rating [16]: 90 | Barnyardgrass plant response rating [17]: 60
